Article PMC4877007, “A Minimal Threshold of c-di-GMP Is Essential for Fruiting Body Formation and Sporulation in Myxococcus xanthus” (PLoS Genetics, 2016)

How the values were obtained:
[1] = biological target: T1, DmxB (Myxococcus xanthus, UniProt Q1D603, R210A); experiment: TLC of [α-32P]-GTP products (diguanylate cyclase assay); assay type: biochemical; details: labelled compound; I-site mutant; 1 mM GTP, 10 μM protein, 10 mM MgCl2, 300 mM NaCl, pH 8.0, 30°C
T1 construct: gene MXAN_3735; full-length, DmxB-His6 from pET24b(+) (pDJS30), made in E. coli Rosetta 2(DE3), Ni-NTA; N-terminal receiver, C-terminal GGDEF
T1 sequence (Q1D603 entry or part of it R210A): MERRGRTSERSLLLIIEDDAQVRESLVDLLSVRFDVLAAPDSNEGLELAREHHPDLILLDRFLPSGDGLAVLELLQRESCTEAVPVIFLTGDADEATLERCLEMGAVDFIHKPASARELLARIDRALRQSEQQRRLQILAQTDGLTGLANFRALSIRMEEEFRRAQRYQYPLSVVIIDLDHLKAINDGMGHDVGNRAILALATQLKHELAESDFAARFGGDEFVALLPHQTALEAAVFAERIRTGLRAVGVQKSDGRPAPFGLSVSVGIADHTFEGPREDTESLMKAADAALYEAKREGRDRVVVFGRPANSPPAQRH

[2] = biological target: T2, EpsI/Nla24 (Myxococcus xanthus, UniProt Q1CVM8); experiment: SPR (Biacore T200), steady-state affinity fit; assay type: binding; details: labelled compound: biotinylated c-di-GMP immobilised on streptavidin chip, protein as analyte; paper states KD as that of c-di-GMP; 10 mM HEPES, 150 mM NaCl, 2 mM MgCl2, pH 6.8, 25°C
T2 construct: calculated 50 kDa; receiver, AAA+ and HTH domains
T2 sequence (Q1CVM8 entry or part of it): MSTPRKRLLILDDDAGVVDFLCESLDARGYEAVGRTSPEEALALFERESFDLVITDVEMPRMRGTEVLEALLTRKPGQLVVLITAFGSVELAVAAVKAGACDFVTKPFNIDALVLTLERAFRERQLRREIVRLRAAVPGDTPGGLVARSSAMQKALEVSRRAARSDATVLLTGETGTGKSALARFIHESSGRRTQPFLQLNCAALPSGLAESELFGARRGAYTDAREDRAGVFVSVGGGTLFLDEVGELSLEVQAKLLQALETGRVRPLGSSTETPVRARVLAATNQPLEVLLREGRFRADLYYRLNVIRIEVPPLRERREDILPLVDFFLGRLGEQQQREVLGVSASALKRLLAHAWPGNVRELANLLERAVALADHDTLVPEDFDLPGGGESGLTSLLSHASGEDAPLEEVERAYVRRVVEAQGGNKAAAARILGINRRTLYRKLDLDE

Molecule | TLC of [α-32P]-GTP products (diguanylate cyclase assay) [1] | Kd [2]
Nc1nc2c(ncn2[C@@H]2O[C@H](COP(=O)(O)OP(=O)(O)OP(=O)(O)O)[C@@H](O)[C@H]2O)c(=O)[nH]1 [GTP] | the I-site mutant had slightly increased DGC activity in vitro in comparison to the WT | 
biotinylated c-di-GMP |  | 530 ± 60 nM
